Results as given in patent US20230302014A1, “USES OF GLUCOCORTICOID RECEPTOR (GR) ANTAGONIST AND ANDROGEN RECEPTOR (AR) DEGRADER COMBINATIONS” (ORIC Pharmaceuticals, Inc., priority 2020, published 2023).

Key:
CWR22PC cells = test: Cell growth (cell number) of prostate cancer cells under long-term treatment; type: cell-based, Human; conditions: CSS media; for R1881-induced cell growth: CWR22PC, + 0.5 µM compound 1
Protocol: (§1) CWR22PC cells were seeded at a density of 2 × 10^5 cells/well in 6-well plates (Corning# 3516) in 2 mL of RPMI-1640 media supplemented with 10% charcoal-stripped serum (CSS) in duplicate. 24 hours later, cells were treated with 100 pM R1881, 30 nM dexamethasone, 0.5 µM compound 1, 1 µM of ARD1 or ARD2, or combinations thereof as indicated. Fresh media containing the indicated treatment was replaced every 5-7 days. Cell supernatant was collected on Day 12 and 19 and stored at -80° C. for PSA AlphaLISA assay. Cell images were taken on Day 12 and 19 using Leica DMi8 microscope (LEICA MICROSYSTEMS, INC. IL) with a 10X magnification. Cells were then trypsinized and cell numbers in each treatment group were counted three times, average counts were plotted with GraphPad Prism 8. Cell pellets were washed once with 1XPBS and then lysed in 600 µL RLT RNA lysis buffer and stored at -80° C. RNA was extracted for end of study (EOS) biomarker analysis for which the detailed procedures are described in the section RNA Extraction and RT-qPCR analysis.
The impact of ARD1 and ARD2 on the growth of prostate cancer cells was explored. CWR22PC cells were plated in charcoal-stripped serum (CSS) media and treated with vehicle or 0.1 nM R1881 (synthetic AR ligand) without or with 1 µM of ARD1 or ARD2. Media with treatments were replaced every 5-7 days and cells were maintained at 37° C. for 22 days. Supernatant of each group was harvested at day 22 to measure PSA secretion by PSA AlphaLISA assays.
as §1, with “24 hours later, cells were treated with 100 pM R1881, 30 nM dexamethasone, 0.5 µM compound 1, 1 µM of ARD1 or ARD2, or combinations thereof as indicated.” left out, “15” for “12”, “21” for “19”, “assay.” for “assay. Cell images were taken on Day 12 and 19 using Leica DMi8 microscope (LEICA MICROSYSTEMS, INC. IL) with a 10X magnification.”

PSA = PSA AlphaLISA assay of cell supernatant (PSA secretion); type: cell-based, Human; conditions: CSS media; for R1881-induced PSA secretion: CWR22PC, + 0.5 µM compound 1
[1] = system: AR and/or GR target genes KLK4, KLF9, FKBP5, PER1, SGK1; test: Biomarker analysis by RT-qPCR, 48 hours; type: cell-based, Human; conditions: CWR22PC and 22Rv1 cells
Protocol: CWR22PC and 22RV1 cells were seeded at a density of 2 × 10^5 cells/well in 6-well plates in 2 mL of RPMI-1640 media supplemented with 10% charcoal-stripped serum (CSS). Cells were treated with 100 pM R1881, 30 nM dexamethasone, 0.5 µM compound 1, 1 µM of ARD1 or ARD2, or combinations thereof as indicated and maintained at 37° C. 48 hours later, media was removed, and cells were washed once with PBS and then harvested for mRNA analysis.
(§2) Adherent cells or cell pellets harvested for mRNA analysis were first washed once with PBS and then resuspended in 600 µL of RLT lysis buffer (Qiagen Inc.) supplemented with 1% of betamercaptoethanol. RNA was extracted by QIAcube using the RNeasy Mini QIAcube kit (Qiagen#74116) according to manufacturer’s instructions. The extracted RNA samples were then quantified using a Nanodrop 8000 Spectrophotometer. RT-qPCR reactions were set up in triplicate using 3 µL of 3 ng/ µL of RNA in 7 µL of pre-mixed SensiFAST™ SYBR No-ROX One-Step Kit reagents (BIOLINE# BIO-98005). The RT-qPCR reactions were run on a Bio-Rad CFX384 Real-Time PCR System and data was plotted with GraphPad Prism 8 software.
CWR22PC and 22Rv1 cells were seeded at a density of 2 × 10^5 cells/well in 6-well plates in 2 mL of RPMI-1640 media supplemented with 10% charcoal-stripped serum (CSS). […] 48 hours later, media was removed, and cells were washed once with PBS and then harvested for mRNA analysis.

[2] = system: AR and GR target genes in CWR22PC cells; test: End of study (EOS) biomarker analysis by RT-qPCR; type: cell-based, Human; conditions: CSS media, + 0.5 µM compound 1
Protocol: as §1, §2
CWR22PC cells were seeded at a density of 2 × 10^5 cells/well in 6-well plates (Corning# 3516) in 2 mL of RPMI-1640 media supplemented with 10% charcoal-stripped serum (CSS) in duplicate. […] Cells were then trypsinized and cell numbers in each treatment group were counted three times, average counts were plotted with GraphPad Prism 8. […]

GR = target: T1, GR (Homo sapiens, UniProt P04150); conditions: prostate cancer models with GR upregulated, in response to glucocorticoids; Zhou et al. 2019; cited from earlier work
T1 sequence (P04150 1-777): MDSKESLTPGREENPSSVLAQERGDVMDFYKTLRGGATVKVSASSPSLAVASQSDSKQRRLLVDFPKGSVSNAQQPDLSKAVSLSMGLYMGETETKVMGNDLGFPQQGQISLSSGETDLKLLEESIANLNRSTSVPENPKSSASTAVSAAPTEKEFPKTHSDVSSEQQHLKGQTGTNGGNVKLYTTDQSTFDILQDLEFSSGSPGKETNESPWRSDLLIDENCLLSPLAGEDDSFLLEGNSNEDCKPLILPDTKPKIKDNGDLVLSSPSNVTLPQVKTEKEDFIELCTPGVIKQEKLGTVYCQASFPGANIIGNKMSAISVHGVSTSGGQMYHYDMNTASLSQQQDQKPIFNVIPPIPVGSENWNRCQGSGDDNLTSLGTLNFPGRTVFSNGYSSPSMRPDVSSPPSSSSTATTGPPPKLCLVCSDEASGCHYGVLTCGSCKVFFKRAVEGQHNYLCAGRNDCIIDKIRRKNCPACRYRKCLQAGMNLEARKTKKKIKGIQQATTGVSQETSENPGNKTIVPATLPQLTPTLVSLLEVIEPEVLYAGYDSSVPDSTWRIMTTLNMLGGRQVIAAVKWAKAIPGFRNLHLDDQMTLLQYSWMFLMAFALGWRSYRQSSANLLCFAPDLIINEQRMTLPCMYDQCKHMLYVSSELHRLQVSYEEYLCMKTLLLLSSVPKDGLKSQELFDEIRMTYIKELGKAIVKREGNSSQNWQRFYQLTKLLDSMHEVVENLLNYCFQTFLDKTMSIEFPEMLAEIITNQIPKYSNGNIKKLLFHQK

[3] = system: AR target genes KLK3, KLK4, NKX3.1, FKBP5; test: Target gene assay (RT-qPCR, R1881-induced AR target genes); type: cell-based, Human; conditions: 100 pM R1881, 24 hours post treatment
Protocol: (§3) 10,000 LNCaP and CWR22PC cells per well were plated in triplicate in poly-lysine coated 96-well plates (ThermoFisher#152039) in 200 µL of RPMI-1640 media supplemented with 10% charcoal-stripped serum. 24 hours later, cells were treated with 100 pM of R1881 and 8-point dilution for enzalutamide, ARD1 or ARD2 with concentrations ranging from 1 µM to 0.46 nM. After incubation at 37° C. for 24 hours, media was removed, and cells were washed once with PBS. 55 µL per well of iScript RT-qPCR sample preparation reagent (Bio-Rad #1708898) was added and incubated for 2 minutes before lysate was collected for mRNA analysis. RT-qPCR was set up in triplicate using 3 µL of lysate plus 7 µL of pre-mixed SensiFAST™ SYBR No-ROX One-Step Kit reagents (BIOLINE, Cat# BIO-98005) per reaction. The RT-qPCR reactions were run on a Bio-Rad CFX384 Real-Time PCR System and data was plotted with GraphPad Prism 8 software.
as §3, with “15,000” for “10,000”, “24 hours later, cells were treated with 100 pM of R1881 and 8-point dilution for enzalutamide, ARD1 or ARD2 with concentrations ranging from 1 µM to 0.46 nM.” left out, “75” for “55”

[4] = 19 days, 0.1 nM R1881 + 1 µM ARD1 or ARD2, + 30 nM dexamethasone
[5] = 21 days, 0.1 nM R1881 + 1 µM ARV-110, + 30 nM dexamethasone

Structure (SMILES): C[C@]1(O)CC[C@H]2[C@@H]3CCC4=CC(=O)CCC4=C3C=C[C@@]21C [Compound R1881]
- CWR22PC cell growth (CWR22PC cells; 0.1 nM R1881 without or with 1 µM ARD1 or ARD2, 22 days): promotes
- PSA secretion (PSA; CWR22PC cells, 0.1 nM R1881 without or with 1 µM ARD1 or ARD2, day 22): promotes

Structure (SMILES): CC(C)N(C)c1ccc([C@H]2C[C@@]3(C)[C@@H](CC[C@@]3(O)C#CC(C)(C)C)[C@@H]3CCC4=CC(=O)CC[C@@H]4[C@H]32)cc1 [Compound 1]
- R1881-induced cell growth (CWR22PC cells; [4]): fully reverses
- R1881-induced cell growth (CWR22PC cells; [5]): fully reverses
- R1881-induced PSA secretion (PSA; [4]): fully reverses
- R1881-induced PSA secretion (PSA; [5]): fully reverses
- DEX-induced GR and AR target gene expression ([1]; 0.5 µM compound 1 in the presence of 1 µM ARD1 or ARD2, 0.1 nM R1881, 30 nM DEX): fully reverses
- DEX-induced GR and AR target gene expression ([1]; 0.5 µM compound 1 in the presence of 1 µM ARV-110, 0.1 nM R1881, 30 nM DEX): fully reverses
- R1881-induced target gene (biomarker) expression ([2]; day 19 EOS, 0.1 nM R1881 + 1 µM ARD1 or ARD2, + 30 nM dexamethasone): fully reverses
- R1881-induced target gene (biomarker) expression ([2]; day 21 EOS, 0.1 nM R1881 + 1 µM ARV-110, + 30 nM dexamethasone): fully reverses
- sensitivity to enzalutamide treatment (GR): restores sensitivity to enzalutamide treatment

Structure (SMILES): CNC(=O)c1ccc(N2C(=S)N(c3ccc(C#N)c(C(F)(F)F)c3)C(=O)C2(C)C)cc1F [Enzalutamide, enzalutamide]
- AR target gene FKBP5 induced by R1881 ([3]; CWR22PC cells): inhibit
- AR target gene KLK3 induced by R1881 ([3]; CWR22PC cells): inhibit
- AR target gene KLK4 induced by R1881 ([3]; CWR22PC cells): inhibit
- AR target gene NKX3.1 induced by R1881 ([3]; CWR22PC cells): inhibit
- AR target gene FKBP5 induced by R1881 ([3]; LNCaP cells): inhibit
- AR target gene KLK3 induced by R1881 ([3]; LNCaP cells): inhibit
- AR target gene KLK4 induced by R1881 ([3]; LNCaP cells): inhibit
- AR target gene NKX3.1 induced by R1881 ([3]; LNCaP cells): inhibit
